# From patent publication US20090234019A1, “T Type Calcium Channel Inhibitors” (priority 2004, published 2009)
# How the values were obtained:
# LNCaP cells [1] = assay: Inhibition of calcium entry into LNCaP cells; format: cell-based; conditions: Homo sapiens, NE = no effect at highest concentration of drug tested, read-out: Ca2+: IC50 for inhibition of calcium entry, LNCaP
# Description: (§1) Cells were incubated in growth media containing 1 uM of the acetoxy-methyl ester of the Ca2+-sensitive fluorescent dye indo-1 (indo-1/AM; Molecular Probes, Eugene, Oreg.) for 1 h at 37° C. Cells were washed three times in buffer A [10 mM HEPES (pH 7.4), 1 mM MgCl2, 3 mM KCl, 1 mM CaCl2, 140 mM NaCl, 0.1% glucose, and 1% fetal bovine serum] and suspended to a final concentration of 10^6 cells/ml. Before stimulation, cells were warmed to 37° C. Changes in [Ca2+]i were monitored in an SLM 8100C spectrofluorimeter (SLM/Aminco; Urbana, Ill.) using previously published methods (Densmore, J. J., Haverstick, D. M., Szabo, G., and Gray, L. S. 1996. A voltage operable current is involved in activation-induced Ca^2+ entry in human lymphocytes whereas ICRAC has no apparent role. Am. J. Physiol. 271:C1494-C1503; Haverstick, D. M., Densmore, J. J., and Gray, L. S. 1998. Calmodulin regulation of Ca^2+ entry in Jurkat T cells. Cell Calcium 23:361-368).
# MDA-435 cells [2] = assay: Inhibition of calcium entry into MDA-435 cells; format: cell-based; conditions: MDA435, NE = no effect at highest concentration of drug tested, read-out: Ca2+: IC50 for inhibition of calcium entry, MDA-435
# Description: as §1
# Jurkat cells [3] = assay: Inhibition of calcium entry into Jurkat cells (indo-1 fluorescence); format: cell-based, human; conditions: Homo sapiens; Jurkat; NE = no effect at highest concentration of drug tested; read-out: Ca2+: IC50 for inhibition of calcium entry, Jurkat
# Description: as §1, with “8100C” left out, “([…].,” for “(Densmore, J. J., Haverstick, D. M.,”, “271:[…].,” for “271:C1494-C1503; Haverstick, D. M., Densmore, J. J.,”
# MDA-361 cells [4] = assay: Inhibition of calcium entry into MDA-361 cells; format: cell-based; conditions: MDA361, NE = no effect at highest concentration of drug tested, read-out: Ca2+: IC50 for inhibition of calcium entry, MDA-361
# Description: as §1
# PC3 cells [5] = assay: Inhibition of proliferation of PC3 cells; format: cell-based, human
# Description: (§2) Cancer cell lines were obtained from the American Type Culture Collection (Manassas, Va.). Cell lines were maintained in RPMI1640 supplemented with glutamine and 5% fetal bovine serum containing SerXtend (Irvine Scientific) when appropriate insulin, as directed by the ATCC. The fetal bovine serum used for culture was heat-inactivated by maintaining the serum at 56° C. for 1 h. Cell lines used were a T celleukemia (Jurkat), prostate cancer (PC3, DU145, LNCAP), breast cancer (MDA468, MDA361, MCF7), pancreatic cancer (MIA PaCa2), liver cancer (Hep G2), lung cancer (A549, NCl H460), colon cancer (HT29, HCT 116), and ovarian cancer (SK-OV-3).
# (§3) LNCaP cells at 2.5×10^4 cells/well or PC-3 cells at 5×10^4 cells/well, both in a final volume of […], were plated in triplicate in standard flat-bottomed 96-well tissue culture plates in the presence of drug or vehicle (DMSO). Unless otherwise indicated, cells were grown for 48 h at 37° C. in a CO2 incubator. Relative cell growth was determined with the CellTiter 96 aqueous cell proliferation assay (Promega, Madison, Wis.) as described by the manufacturer using an automated plate reader. Results were calculated in a blinded fashion and are the means of triplicate determinations.
# MDA-231 cells [6] = assay: Inhibition of proliferation of MDA-231 cells; format: cell-based; conditions: Homo sapiens, MDA-MB-231, NE = no effect at highest concentration of drug tested, read-out: prolif: IC50 for inhibition of proliferation, MDA-231
# PC3 cells [7] = assay: Inhibition of calcium entry into PC3 cells; format: cell-based; conditions: Homo sapiens, PC-3, NE = no effect at highest concentration of drug tested, read-out: Ca2+: IC50 for inhibition of calcium entry, PC3
# Description: as §1
# MDA-435 cells [8] = assay: Inhibition of proliferation of MDA-435 cells; format: cell-based; conditions: MDA435, NE = no effect at highest concentration of drug tested, read-out: prolif: IC50 for inhibition of proliferation, MDA-435
# Jurkat cells [9] = assay: Inhibition of proliferation of Jurkat cells; format: cell-based, human; conditions: Jurkat
# Description: as §2, §3
# LNCaP cells [10] = assay: Inhibition of proliferation of LNCaP cells; format: cell-based; conditions: Homo sapiens, NE = no effect at highest concentration of drug tested, read-out: prolif: IC50 for inhibition of proliferation, LNCaP
# Description: as §2, §3
# MDA-231 cells [11] = assay: Inhibition of calcium entry into MDA-231 cells; format: cell-based; conditions: Homo sapiens, MDA-MB-231, NE = no effect at highest concentration of drug tested, read-out: Ca2+: IC50 for inhibition of calcium entry, MDA-231
# Description: as §1
# MDA-361 cells [12] = assay: Inhibition of proliferation of MDA-361 cells; format: cell-based; conditions: MDA361, NE = no effect at highest concentration of drug tested, read-out: prolif: IC50 for inhibition of proliferation, MDA-361
# Description: as §2, §3
# [13] = target: T1, α1H isoform of T type Ca2+ channels (Homo sapiens, UniProt O95180); assay: Inhibition of Ca2+ current through transfected α1H channels; format: cell-based; conditions: FIG. 7
# T1 construct: expressed in transfected cells; host or cells: HEK293 (stably transfected)
# T1 sequence (O95180 whole entry, canonical isoform): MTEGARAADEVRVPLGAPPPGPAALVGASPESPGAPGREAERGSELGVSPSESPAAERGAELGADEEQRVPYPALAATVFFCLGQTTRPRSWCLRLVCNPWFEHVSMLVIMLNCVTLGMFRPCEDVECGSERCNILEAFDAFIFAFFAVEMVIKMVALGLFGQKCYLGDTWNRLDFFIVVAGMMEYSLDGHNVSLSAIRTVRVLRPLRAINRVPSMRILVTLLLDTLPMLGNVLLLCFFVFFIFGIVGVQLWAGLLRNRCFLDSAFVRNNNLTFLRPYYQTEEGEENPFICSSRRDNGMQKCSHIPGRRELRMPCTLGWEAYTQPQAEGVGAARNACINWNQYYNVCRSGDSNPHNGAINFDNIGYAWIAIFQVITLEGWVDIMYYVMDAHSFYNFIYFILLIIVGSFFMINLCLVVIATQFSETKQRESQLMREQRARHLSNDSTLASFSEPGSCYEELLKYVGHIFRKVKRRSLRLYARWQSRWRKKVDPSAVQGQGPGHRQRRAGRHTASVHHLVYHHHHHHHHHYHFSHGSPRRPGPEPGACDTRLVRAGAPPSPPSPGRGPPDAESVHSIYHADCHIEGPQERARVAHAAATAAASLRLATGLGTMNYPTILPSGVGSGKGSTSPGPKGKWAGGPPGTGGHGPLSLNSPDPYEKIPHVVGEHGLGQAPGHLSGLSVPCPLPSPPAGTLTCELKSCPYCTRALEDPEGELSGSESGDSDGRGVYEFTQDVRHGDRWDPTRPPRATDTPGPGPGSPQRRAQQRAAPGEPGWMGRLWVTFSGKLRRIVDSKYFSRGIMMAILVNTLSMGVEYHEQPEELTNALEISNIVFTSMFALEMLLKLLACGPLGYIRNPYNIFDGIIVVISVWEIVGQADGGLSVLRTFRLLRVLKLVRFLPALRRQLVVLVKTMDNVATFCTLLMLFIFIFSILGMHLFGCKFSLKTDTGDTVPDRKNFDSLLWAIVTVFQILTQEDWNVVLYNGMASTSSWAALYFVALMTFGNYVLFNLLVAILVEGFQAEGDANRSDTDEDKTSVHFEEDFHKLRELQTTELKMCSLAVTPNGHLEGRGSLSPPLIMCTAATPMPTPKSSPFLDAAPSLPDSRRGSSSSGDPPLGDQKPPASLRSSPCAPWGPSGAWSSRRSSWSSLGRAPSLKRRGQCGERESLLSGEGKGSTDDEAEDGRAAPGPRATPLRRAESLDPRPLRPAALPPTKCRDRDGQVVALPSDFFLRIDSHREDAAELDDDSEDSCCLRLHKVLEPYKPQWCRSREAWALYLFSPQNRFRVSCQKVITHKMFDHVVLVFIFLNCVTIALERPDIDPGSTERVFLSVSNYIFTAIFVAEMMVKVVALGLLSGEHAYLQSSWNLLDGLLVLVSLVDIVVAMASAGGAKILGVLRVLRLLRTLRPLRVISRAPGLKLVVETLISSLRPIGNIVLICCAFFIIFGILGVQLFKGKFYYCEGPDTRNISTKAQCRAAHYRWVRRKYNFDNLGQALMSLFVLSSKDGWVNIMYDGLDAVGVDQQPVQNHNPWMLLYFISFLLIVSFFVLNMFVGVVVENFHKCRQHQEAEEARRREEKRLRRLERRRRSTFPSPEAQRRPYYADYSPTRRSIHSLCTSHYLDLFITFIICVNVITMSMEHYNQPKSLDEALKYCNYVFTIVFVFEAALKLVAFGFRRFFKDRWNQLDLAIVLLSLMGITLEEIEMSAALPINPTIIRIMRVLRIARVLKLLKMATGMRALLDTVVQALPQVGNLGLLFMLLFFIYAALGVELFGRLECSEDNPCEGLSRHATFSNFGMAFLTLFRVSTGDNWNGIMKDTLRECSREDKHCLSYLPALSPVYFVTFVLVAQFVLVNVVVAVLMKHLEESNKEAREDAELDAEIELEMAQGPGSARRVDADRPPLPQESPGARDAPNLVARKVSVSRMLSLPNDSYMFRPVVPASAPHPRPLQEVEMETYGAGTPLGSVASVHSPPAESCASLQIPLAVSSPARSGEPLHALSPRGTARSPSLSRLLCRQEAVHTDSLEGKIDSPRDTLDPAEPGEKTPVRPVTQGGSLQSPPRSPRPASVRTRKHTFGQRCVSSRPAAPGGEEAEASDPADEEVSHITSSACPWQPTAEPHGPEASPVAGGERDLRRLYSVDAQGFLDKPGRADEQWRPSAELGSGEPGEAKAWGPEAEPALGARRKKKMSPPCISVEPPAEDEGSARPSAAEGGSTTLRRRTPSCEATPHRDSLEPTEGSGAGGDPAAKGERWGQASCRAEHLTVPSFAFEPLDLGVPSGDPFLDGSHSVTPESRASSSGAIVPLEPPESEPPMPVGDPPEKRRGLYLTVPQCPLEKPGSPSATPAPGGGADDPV
# [14] = test system: HEK293 cells stably transfected the α1H gene; assay: Proliferation of HEK293 cells stably transfected with α1H; format: cell-based; conditions: FIG. 5
# [15] = test system: human PC3 prostate cancer cells; conditions: xenografted PC3, Haverstick et al. 2000; cited from earlier work
# [16] = Homo sapiens, PC-3, PC3, NE = no effect at highest concentration of drug tested, read-out: prolif: IC50 for inhibition of proliferation, PC3
# [17] = Homo sapiens, NE = no effect at highest concentration of drug tested, read-out: prolif: IC50 for inhibition of proliferation, Jurkat
# [18] = FIG. 6 panel B, read-out: IC50, proliferation of PC3 human prostate cancer cells
Structure (SMILES),IC50 (LNCaP cells [1]) [µM],IC50 (MDA-435 cells [2]) [µM],IC50 (Jurkat cells [3]) [µM],IC50 (MDA-361 cells [4]) [µM],IC50 (PC3 cells [5]; [16]) [µM],IC50 (PC3 cells [7]) [µM],IC50 (Jurkat cells [9]; [17]) [µM],IC50 (LNCaP cells [10]) [µM],IC50 (MDA-231 cells [11]) [µM],IC50 [13] [µM],IC50 (PC3 cells [5]; [18]) [µM],"IC50 (Jurkat cells [9]; 48 hrs, in the absence of ionomycin, read-out: IC50 of TH-1177 for inhibition of proliferation) [µM]","IC50 (Jurkat cells [9]; 48 hrs, in the presence of 30 uM ionomycin, read-out: IC50 of TH-1177 for inhibition of proliferation) [µM]",IC50 (MDA-231 cells [6]) [µM],IC50 (MDA-435 cells [8]) [µM],IC50 (MDA-361 cells [12]) [µM],proliferation of stably transfected HEK293 cells [14],lifespan of nude mice inoculated with human PC3 prostate cancer cells [15]
COc1ccc(CCNCCOC(c2ccccc2)c2ccc(Cl)cc2)cc1 (stereo not drawn) [Compound 3.8],10,10,10,20,11.5,10,7.5,3.5,10,,,,,10.6,15.7,7.6,,
COc1ccc(CCN2CCC[C@H]2COC(c2ccccc2)c2ccc(Cl)cc2)cc1 (stereo partly drawn) [TH-1177],,,,,,,,,,0.8,14,17.8,4.6,,,,inhibits proliferation,significantly extended the lifespan
COc1ccc(CCN2CCCC2COC(c2ccccc2)c2ccc(Cl)cc2)cc1 (stereo not drawn) [TH-1211],,,,,,,,,,7,42,,,,,,,
"COCC(=O)O[C@]1(CCN(C)CCCc2nc3ccccc3[nH]2)CCc2cc(F)ccc2[C@@H]1C(C)C [mibefradil, reference compound]",,,,,,,,,,,,,,,,,inhibits proliferation,
COc1ccc(C(=O)CCCCOC(c2ccccc2)c2ccc(Cl)cc2)cc1 (stereo not drawn) [Compound 3.6],> 100,> 100,> 100,> 100,> 100,> 100,> 100,~100,> 100,,,,,> 100,> 100,> 100,,

# Further compounds by falling IC50 (Jurkat cells [3]), results first:
IC50 (LNCaP cells [1]) [µM],IC50 (MDA-435 cells [2]) [µM],IC50 (Jurkat cells [3]) [µM],IC50 (MDA-361 cells [4]) [µM],IC50 (PC3 cells [5]; [16]) [µM],IC50 (PC3 cells [7]) [µM],IC50 (Jurkat cells [9]; [17]) [µM],IC50 (LNCaP cells [10]) [µM],IC50 (MDA-231 cells [11]) [µM],IC50 [13] [µM],IC50 (PC3 cells [5]; [18]) [µM],"IC50 (Jurkat cells [9]; 48 hrs, in the absence of ionomycin, read-out: IC50 of TH-1177 for inhibition of proliferation) [µM]","IC50 (Jurkat cells [9]; 48 hrs, in the presence of 30 uM ionomycin, read-out: IC50 of TH-1177 for inhibition of proliferation) [µM]",Structure (SMILES),IC50 (MDA-231 cells [6]) [µM],IC50 (MDA-435 cells [8]) [µM],IC50 (MDA-361 cells [12]) [µM],proliferation of stably transfected HEK293 cells [14],lifespan of nude mice inoculated with human PC3 prostate cancer cells [15]
,,30,,11,30,30,7,30,,,,,COc1ccc(CCCCNCCC(c2ccccc2)c2ccc(Cl)cc2)cc1 (stereo not drawn) [Compound 3.21],15,9,,,
10,25,10,10,11,,4,3.5,10,,,,,COc1ccc(CNCCCCCC(c2ccccc2)c2ccc(Cl)cc2)cc1 (stereo not drawn) [Compound 3.1],8,12,8,,
10,10,7,25,33,30,50,25,10,,,,,COc1ccc(C(O)CCCCOC(c2ccccc2)c2ccc(Cl)cc2)cc1 (stereo not drawn) [Compound 3.5],50,65,45,,
5,10,3,6,9,10,3,2,8,,,,,COc1ccc(CNCCCCOC(c2ccccc2)c2ccc(Cl)cc2)cc1 (stereo not drawn) [Compound 3.2],10,10.5,4,,
15,15,3,10,10,~15,3.7,5.5,~20,,,,,COc1ccc(CCCNCCOC(c2ccccc2)c2ccc(Cl)cc2)cc1 (stereo not drawn) [Compound 3.4],4,10,4,,
3,10,3,5,4,,3.8,1.6,10,,,,,COc1ccc(CNCCOC(c2ccccc2)c2ccc(Cl)cc2)cc1 (stereo not drawn) [Compound 3.9],11.7,12,4,,
